# Measured values as given in ChEMBL document CHEMBL1123140, “Acylamino boronic acids and difluoroborane analogues of amino acids: potent inhibitors of chymotrypsin and elastase” (J Med Chem, 1985).
# pKi: −log10 of the molar value.
# Target: not listed separately
# Assay: Competitive inhibition of porcine elastase by the compound was evaluated
# Parameters: species or system Sus scrofa
row,pKi,SMILES
1,7.00,CC[C@H](C)[C@H](NC(=O)C(C)NC(=O)OCc1ccccc1)B(F)F (stereo not given in full)
2,6.92,CC[C@H](C)[C@H](NC(=O)C(C)NC(=O)OCc1ccccc1)B(O)O (stereo not given in full)
3,5.96,CC(NC(=O)OCc1ccccc1)C(=O)N[C@H](B(O)O)C(C)C (stereo not given in full)
4,6.00,CC(NC(=O)OCc1ccccc1)C(=O)N[C@H](B(F)F)C(C)C (stereo not given in full)
5,4.46,CC(NC(=O)OCc1ccccc1)C(=O)N[C@@H](C)B(F)F (stereo not given in full)

# Target: Chymotrypsinogen B (Homo sapiens, UniProt P17538)
# Assay: Competitive inhibition of alpha-chymotrypsin
# Chain of Chymotrypsinogen B (P17538 34-164 limits assumed, other chains not shown): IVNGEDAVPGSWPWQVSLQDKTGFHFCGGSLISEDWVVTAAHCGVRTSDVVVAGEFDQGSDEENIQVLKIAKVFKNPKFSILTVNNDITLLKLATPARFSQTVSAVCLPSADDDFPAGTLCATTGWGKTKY
# Chain of Chymotrypsinogen B (P17538 167-263 limits assumed, other chains not shown): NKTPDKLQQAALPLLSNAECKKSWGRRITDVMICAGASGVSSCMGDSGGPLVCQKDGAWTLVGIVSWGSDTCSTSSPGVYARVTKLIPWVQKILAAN
row,pKi,SMILES
1,5.77,CC(=O)N[C@@H](Cc1ccccc1)B(F)F
2,6.19,O=C(NC(Cc1ccccc1)B(O)O)c1ccccc1 (stereo not given)
3,6.44,O=C(N[C@@H](Cc1ccccc1)B(O)O)c1ccccc1
4,5.70,CC(NC(=O)OCc1ccccc1)C(=O)NC(B(F)F)c1ccccc1 (stereo not given)
5,5.13,CC(=O)NC(Cc1ccccc1)B(F)F (stereo not given)
6,5.30,O=C(NC(B(F)F)c1ccccc1)c1ccccc1 (stereo not given)
7,6.19,O=C(NC(Cc1ccccc1)B(F)F)c1ccccc1 (stereo not given)
8,5.68,CC(=O)N[C@@H](Cc1ccccc1)B(O)O
9,6.57,O=C(N[C@@H](Cc1ccccc1)B(F)F)c1ccccc1
10,5.19,CC(=O)NC(Cc1ccccc1)B(O)O (stereo not given)
